{"source": "patent US9662322B2", "about": "(TEVA PHARMACEUTICAL INDUSTRIES, LTD., priority 2014, dated 2017)", "test_system": "subjects with relapsing remitting multiple sclerosis (RRMS)", "assay": "ALLEGRO Phase III trial: MRI endpoints", "type": "in vivo, human", "description": "MRI related secondary endpoints were the cumulative number of GdE lesions at months 12 and 24; and the cumulative number of new T2 lesions (relative to previous scan) at months 12 and 24; MRI exploratory endpoints included percent change of brain volume using SIENA.\nAdditional MRI methodological details are as follows: In all patients, MRI scans were performed at 0, 12, and 24 months. Before a site could enroll study participants they were required to image a volunteer patient with definite MS twice with repositioning according to a strict study imaging protocol using scanners with a minimum field strength of 1.5 T. Fast/turbo spin echo (repetition time [TR]=2200-3500 ms, echo time [TE]=14-50/90-120 ms, echo train length=2-7, slice thickness=3 mm, and contiguous axial slices=44) sequences were used to obtain proton density and T2-weighted images. High resolution pre-contrast 3D T1-weighted sequences (TR=8-15 ms, TE=3-5 ms, inversion time=1.1 s, number of slices 160, slice thickness 1.2 mm, flip angle [FA]=10-15, orientation sagittal) were acquired for quantification of brain atrophy. Finally, T1-weighted images (1.5 T scanners: conventional spin echo sequence; TR=600-650 ms, TE=10-20 ms, slice thickness=3 mm, and contiguous axial slices=44; 3.0 T scanners: 3D sequence; TR=5-9 ms, TE=2-5 ms, FA=15, slice thickness=3 mm, and contiguous axial slices=44) were obtained 5 minutes after injection of 0.1 mmol/kg of gadolinium. A series of axial, coronal, and sagittal images was obtained to create an axial reference scan for subsequent careful repositioning of each patient at the follow-up session. Axial slices were positioned to run parallel to a line joining the most inferioanterior and inferioposterior parts of the corpus callosum.\nImage quality was reviewed at the MRI-AC using predetermined criteria. The identification of GdE and T2-hyperintense lesions was done by consensus of two experienced observers. The number of total and new GdE lesions and new/enlarging T2-hyperintense lesions were counted. The identified lesions were then outlined by trained technicians using a semiautomated segmentation technique based on local thresholding (Jim 4.0; Xinapse System, Leicester, UK) and lesion volumes were calculated automatically. Percentage brain volume changes and cross-sectional normalized brain volumes were measured on […] T1-weighted images, with Structural Image Evaluation of Normalized Atrophy (SIENA) software and a cross-sectional method (SIENAX) (available from the FMRIB Software Library, Oxford University, Oxford, UK; http://www.fmrib.ox.ac.uk/analysis/research/siena/siena).\nAnalyses of the secondary MRI endpoints of the cumulative number of GdE and new/enlarging T2 lesions at 12 and 24 months involved a baseline-adjusted negative binomial regression with an “offset” employing the log of the relative exposure to adjust for early-terminated patients. The model included as covariates the number of enhancing lesions at baseline, and country or geographical region. In the case of new/enlarging T2 lesion analysis, the baseline T2 lesion volume was also added. The MRI secondary endpoints analyses were tested simultaneously with an overall type I error of 5%, using the Hochberg's step-up modification to Bonferroni's method to the two P-values obtained from the analyses of these two endpoints. The analysis of the brain atrophy endpoint involved a baseline-adjusted analysis of covariance (ANCOVA). The covariates were the number of GdE lesions at baseline and the country or region. The exploratory endpoints were all analyzed at a significance level of 5%.\nSecondary endpoints of the ALLEGRO trial included disease activity as measured by MRI, including counts of Gadolinium enhancing T1 lesions and new-T2 hyperintense lesions. […] Conventional MRI scans for new T1 hypointense lesions, and brain volume using SIENA were performed at baseline, 12 and 24 months. […]"}
{"compound": "CCN(C(=O)c1c(O)c2c(Cl)cccc2n(C)c1=O)c1ccccc1", "note": "[Laquinimod, laquinimod]", "values": [{"measurement": "BA at month 12, Effect (reduction in brain atrophy)", "setting": "baseline to 12 months, vs placebo", "value": 53, "unit": "% reduction"}, {"measurement": "Hypointense T1 volume, BL to M 24", "setting": "change baseline to month 24", "value": 7, "unit": "%"}, {"measurement": "Hypointense T1 volume month 0", "setting": "month 0 (baseline)", "value": 2.65}, {"measurement": "T2 volume month 0", "setting": "month 0 (baseline)", "value": 7.27}, {"measurement": "% BV change by previous medications: naïve", "setting": "post-hoc", "value": "−0.82", "unit": "%"}, {"measurement": "GdE lesion free M 12", "setting": "post-hoc", "value": 69, "unit": "%"}, {"measurement": "% BV change M 24, GdE = 0, Effect", "setting": "post-hoc, vs placebo", "value": 30, "unit": "% reduction"}, {"measurement": "% BV change M 24, GdE > 0, Effect", "setting": "post-hoc, vs placebo", "value": 37, "unit": "% reduction"}, {"measurement": "% BV change by previous medications: naïve, Effect", "setting": "post-hoc, vs placebo", "value": 38, "unit": "% reduction"}, {"measurement": "% BV change by previous medications: not naive, Effect", "setting": "post-hoc, vs placebo", "value": 23, "unit": "% reduction"}, {"measurement": "BA for pts with all scans: Change BL to M 12, Effect", "setting": "post-hoc, vs placebo", "value": 60, "unit": "%"}, {"measurement": "BA for pts with all scans: Change BL to M 24, Effect", "setting": "post-hoc, vs placebo", "value": 57, "unit": "%"}, {"measurement": "Cum # T1 GdE by previous medications: naïve, Effect", "setting": "post-hoc, vs placebo", "value": 42, "unit": "% reduction"}, {"measurement": "Cum # T1 GdE by previous medications: not naive, Effect", "setting": "post-hoc, vs placebo", "value": 32, "unit": "% reduction"}, {"measurement": "Cum New T2 by previous medications: naïve, Effect", "setting": "post-hoc, vs placebo", "value": 33, "unit": "% reduction"}, {"measurement": "Cum New T2 by previous medications: not naive, Effect", "setting": "post-hoc, vs placebo", "value": 24, "unit": "% reduction"}, {"measurement": "GdE counts M 12, Effect", "setting": "post-hoc, vs placebo", "value": 36, "unit": "% reduction"}, {"measurement": "GdE counts M 24, Effect", "setting": "post-hoc, vs placebo", "value": 39, "unit": "% reduction"}, {"measurement": "GdE lesion free M 12, Effect", "setting": "post-hoc, vs placebo", "value": 49, "unit": "% odds"}, {"measurement": "GdE lesion free M 24, Effect", "setting": "post-hoc, vs placebo", "value": 72, "unit": "% odds"}, {"measurement": "GdE volume M 12, Effect", "setting": "post-hoc, vs placebo", "value": 4.5, "unit": "%"}, {"measurement": "GdE volume M 24, Effect", "setting": "post-hoc, vs placebo", "value": 4.7, "unit": "%"}, {"measurement": "New-T1 Hypointense Lesions M 12, Effect", "setting": "post-hoc, vs placebo", "value": 27, "unit": "% reduction"}, {"measurement": "New-T1 Hypointense Lesions M 24, Effect", "setting": "post-hoc, vs placebo", "value": 32, "unit": "% reduction"}, {"measurement": "T1 Hypointense Lesion free M 12, Effect", "setting": "post-hoc, vs placebo", "value": 28, "unit": "% odds"}, {"measurement": "T1 Hypointense Lesion free M 24, Effect", "setting": "post-hoc, vs placebo", "value": 47, "unit": "% odds"}, {"measurement": "T1 hypointense by previous medications: naïve, Effect", "setting": "post-hoc, vs placebo", "value": 28, "unit": "% reduction"}, {"measurement": "T1 hypointense by previous medications: not naive, Effect", "setting": "post-hoc, vs placebo", "value": 25, "unit": "% reduction"}, {"measurement": "T2 lesion free M 12, Effect", "setting": "post-hoc, vs placebo", "value": 39, "unit": "% odds"}, {"measurement": "T2 lesion free M 24, Effect", "setting": "post-hoc, vs placebo", "value": 40, "unit": "% odds"}, {"measurement": "Average MTR of T2 visible lesions, difference", "setting": "vs placebo", "value": 0.330}, {"measurement": "Cumulative new Hypointense T1 months 12 + 24, Effect", "setting": "vs placebo", "value": 27, "unit": "% reduction"}, {"measurement": "Cumulative number of GdE lesions at months 12 and 24, Effect", "setting": "vs placebo", "value": 37, "unit": "% reduction"}, {"measurement": "Cumulative number of new/enlarging T2 lesions at 12 and 24 months, Effect", "setting": "vs placebo", "value": 30, "unit": "% reduction"}, {"measurement": "Hypointense T1 volume month 12, Effect", "setting": "vs placebo", "value": "~1", "unit": "%"}, {"measurement": "Hypointense T1 volume month 24, Effect", "setting": "vs placebo", "value": "~1", "unit": "%"}, {"measurement": "T2 volume month 12, Effect", "setting": "vs placebo", "value": 5, "unit": "%"}, {"measurement": "T2 volume month 24, Effect", "setting": "vs placebo", "value": 5, "unit": "%"}, {"measurement": "Cumulative number of new/enlarging T2 lesions at 12 and 24 months, Effect", "setting": "vs placebo, listed as laquinimod", "value": 30, "unit": "% reduction"}]}
